Data on 79 compounds can be found in the METLIN SMRT retention time set (Domingo-Almenara et al. 2019).

The series in a line: gradient 5% acetonitrile 3 min, to 50% in 2 min, to 85% in 15 min, held 3 min, 100 µL/min. Particulars: column: Zorbax Extend-C18 2.1 x 50 mm; eluents: water / acetonitrile, 0.1% formic acid. In short, it runs like this: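 Standards, all pure, were combined into mixtures of ~100 molecules and run at 100 μL/min on a Zorbax Extend-C18 column (2.1 × 50 mm, 1.8 μm) with water and acetonitrile, each containing 0.1% formic acid. A coupled quadrupole time-of-flight mass spectrometer operated in positive and negative ionization mode. Retention time values come from computationally picked adduct peaks, each inspected manually.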
`CC(C)(Oc1ccc(Cl)cc1)C(=O)Nc1ccc(-c2cn3cccnc3n2)cc1`: the RP-LC retention time came to 794 s.
The figure for `O=C([C@@H]1C[C@H](F)CN1C(=O)Cc1ccsc1)N1CCCCC1` is 657 s.
`COCc1cc(=O)n(CC(=O)NCc2ccc(F)cc2)c(N)n1`: the RP-LC retention time amounted to 583 s.
With `CCOC(=O)c1c(N2CCOCC2)nc2ccc([N+](=O)[O-])cc2c1-c1ccccc1` the figure was 1110 s; with `Cc1ccc2c(c1)cc(S(=O)(=O)c1ccccc1)c(=O)n2CC(=O)NCc1ccc2c(c1)OCO2`, 899 s.
The figure for `Cc1cc(C)cc(NC(=O)N(C)CCc2noc(COc3ccccc3)n2)c1` is 949 s; for `COc1cccc(Cn2nc(-c3nc(-c4ccc(F)cc4)no3)ccc2=O)c1` it is 1060 s.
With `O=C(CCCS(=O)(=O)c1ccccc1)Nc1nnc(-c2ccsc2)o1` the figure was 674 s; with `O=S(=O)(c1ccc(F)cc1)N1CCC(OCCOCc2ccccc2)CC1`, 1060 s.
`N#Cc1cccc(NS(=O)(=O)c2cccc(-c3nc(-c4ccccc4)no3)c2)c1` displayed an RP-LC retention time of 1080 s.
The compound `CCCCN1CC(=O)N(c2cccc(Cl)c2)[C@@H]2CS(=O)(=O)C[C@@H]21` registered an RP-LC retention time of 790 s.
`Cc1cc(Nc2nc3ccncc3n(Cc3ccccc3)c2=O)ccc1Cl` came in with an RP-LC retention time of 747 s.
Compound `Cn1ncc2c(N3CCSCC3)nc(C(=O)NCc3ccncc3)nc21` showed an RP-LC retention time of 566 s.
With `COc1ccc(Cl)c2c(=O)c3c([nH]c12)CCN(CC(=O)Nc1ccc(F)c(F)c1)C3` the figure was 634 s.
The figure for `CC1CCN(C(=O)C2c3ccccc3CCN2CC(=O)NCc2ccccc2)CC1` (centres undefined) is 900 s.
The figure for `CCn1cc(S(=O)(=O)N2CCCCC2c2nc(-c3cccnc3)n[nH]2)cn1` (centres undefined) is 615 s; for `O=C(CCCn1nc(-c2ccc(F)cc2)ccc1=O)Nc1nc2ccccc2[nH]1` it is 584 s.
`Cc1ccc(C)c(CNC(=O)CCNc2cnc3cnccn23)c1` registered an RP-LC retention time of 605 s.
Take `Cc1ccccc1NC(=O)Cn1ccc2sccc2c1=O`: the RP-LC retention time worked out at 701 s.
With `OC(c1ccc(C(F)(F)F)cc1)c1cccnc1` (centres undefined), the RP-LC retention time turned out to be 630 s.
`CCc1nnc2ccc(-c3noc(-c4ccc(Cl)cc4)n3)cn12` displayed an RP-LC retention time of 1050 s.
With `CN1C(=O)c2cccn2CC1C(=O)N1CCc2ccccc21` (centres undefined) the figure was 703 s.
`COc1cccc(C(=O)CC2(O)C(=O)Nc3ccc(F)cc32)c1` (centres undefined): the RP-LC retention time turned out to be 707 s.
The figure for `COCCN1CCC(CNS(=O)(=O)c2ccc(OCC(C)C)cc2)CC1` is 587 s; for `N#Cc1ccc(C(=O)NC(c2ccccc2)c2nnc(N3CCCCC3)o2)cc1` (centres undefined) it is 740 s.
With `O=C(CCc1csc(NC(=O)NC2CCCCC2)n1)NCc1ccc2c(c1)OCO2` the figure was 718 s; with `Cc1oc2c(c1C(=O)Nc1cccc(C(F)(F)F)c1)C1=NCCN1C=N2`, 652 s; with `Cc1cccc(C)c1NC(=O)Cn1c(C)nc2c(sc3nc(-c4ccccc4)ccc32)c1=O`, 1080 s.
Regarding `COc1cc(OC)c(NC(=O)NC2(c3nc(C)no3)CCCCC2)cc1Cl`, the RP-LC retention time was determined as 858 s.
The figure for `Cn1c(N2CCCC(C(=O)Nc3ccc4c(c3)OCCO4)C2)cc(=O)n(C)c1=O` (centres undefined) is 663 s; for `Cc1cccc(C)c1OCC(N)C(C)C` (centres undefined) it is 728 s.
`COc1ccc2c(c1)C1(CCN(S(=O)(=O)c3ccccc3F)C1)C(=O)N2C` (centres undefined) yielded an RP-LC retention time of 901 s.
The figure for `CCn1ccc(C(=O)Nc2cc(Cl)ccc2Cl)n1` is 1140 s; for `CNC(=O)c1cccc(-c2noc(C)n2)c1` it is 644 s.
The figure for `CSc1ccccc1CN1CCC(CNC(=O)C(=O)NCC(F)(F)F)CC1` is 574 s; for `CCOCCCNC(=O)c1c2c(cn(-c3ccc(Cl)cc3)c1=O)C(=O)CC(C)(C)C2` it is 931 s; for `Cc1cc(NC(=O)CN2C(=O)C3CCCCN3c3ccc(C(=O)N4CCCC4)cc32)no1` (centres undefined) it is 738 s.
Regarding `Cc1ccc(NC(=O)c2ccc(CN3CCN(C)CC3)cc2)cc1Nc1nccc(-c2cccnc2)n1`, the RP-LC retention time is 640 s.
With `O=S1(=O)C[C@H](N2CCN(Cc3ccccc3)CC2)[C@@H](S(=O)(=O)c2ccc(F)cc2)C1` the figure was 647 s; with `CCn1cc(CCN2CCN(S(=O)(=O)c3ccc(C)c(Cl)c3)CC2)c2cccnc21`, 708 s; with `CCCCS(=O)(=O)N1CCc2nc(-c3ccccc3)ncc2C1`, 970 s.
The figure for `CCc1cccc(C)c1Nc1c(-c2ccc(SC)cc2)nc2cnccn12` is 1070 s.
On to `CCOC(=O)CN1C(=O)CC(C[C@@H](O)C2C[C@@H](C)C[C@H](C)C2=O)CC1=O` (some centres undefined), for which the RP-LC retention time came out at 821 s.
With `O=C(NC1CC1)[C@@H]1C[C@H](Oc2cccnc2)CN1C(=O)CC1CCCC1` the figure was 605 s; with `Cc1ccc(S(=O)(=O)NCC(c2ccccc2)N(C)C)cc1` (centres undefined), 642 s; with `CN(Cc1ccco1)C(=O)C1CCN(S(=O)(=O)c2ccc3c(c2)sc(=O)n3C)CC1`, 803 s.
For `O=C(CN1C(=O)CCCc2cc(S(=O)(=O)N3CCCCC3)ccc21)Nc1ccc(Cl)cc1`, the RP-LC retention time was determined as 990 s.
Take `Cc1cccc(OCCn2c(CCO)nc3ccccc32)c1C`: the RP-LC retention time came to 599 s.
The figure for `CCC1CCC(c2nnc(-c3ccc([N+](=O)[O-])cc3)o2)CC1` (centres undefined) is 1120 s; for `Cc1ccc2nc(CN3CCN(C(=O)Nc4ccccc4C)CC3)oc2c1` it is 679 s; for `Cc1cccc(NC(=O)NCCn2c(C(F)(F)F)nc3cccnc32)c1` it is 761 s.
Regarding `O=C(c1cc(-c2cccnc2)n[nH]1)N1CCC(C(=O)N2CCN(c3ccc(Cl)cc3)CC2)CC1`, the RP-LC retention time worked out at 694 s.
With `COC(=O)c1ccc2c(=O)n(-c3cccc(F)c3)c(N3CCCCCC3)nc2c1`, the RP-LC retention time turned out to be 1210 s.
The figure for `CCC(=O)Nc1ccc(-n2cnc(C(=O)N3CCN(c4cc(C)ccc4C)CC3)c2)nc1` is 863 s.
Compound `COc1ccccc1-c1nc(-c2ccnc(N3CCOCC3)c2)no1` showed an RP-LC retention time of 812 s.
With `Nc1ccc2c(c1)N=[N+]([O-])c1cc(N)ccc1C2` the figure was 628 s.
The figure for `Cc1ccsc1C(=O)Nc1ccc2c(c1)CCC(=O)N2C` is 733 s.
`Cc1ccccc1Nc1c(-c2ccc(N3CCOCC3)cc2)nc2ccc(Cl)cn12`: the RP-LC retention time is 805 s.
With `Cc1nn(C(C)C(=O)NCCN2CCCCC2C)c(=O)c2c1sc1ccccc12` (centres undefined), the RP-LC retention time was found to be 680 s.
As to `CCC(=O)N1CCc2sc(S(=O)(=O)N3CCN(c4ccc(C)cc4)CC3)cc2C1`, the RP-LC retention time came out at 1000 s.
The figure for `CC(=O)N1CCc2cc(N3CC(C(=O)Nc4cccc(Cl)c4F)CC3=O)ccc21` (centres undefined) is 742 s.
The figure for `Cc1cc(=O)n(Cc2cccc(F)c2)c(N2CCSCC2)n1` is 946 s.
For the compound `Cc1cc(Cl)ccc1NS(=O)(=O)c1ccc2c(c1)NC(=O)C(C(=O)N1CCCC1)S2` (centres undefined), the RP-LC retention time turned out to be 827 s.
With `CNC(=O)c1c(NC(=O)c2ccccc2Cl)sc2c1CCC2` the figure was 1010 s.
The figure for `CCN1C(=O)COc2ccc(-c3csc(NC(=O)c4ccc(OC)cc4)n3)cc21` is 976 s; for `CC(C)n1cc(S(=O)(=O)Nc2ccc(C#N)cc2)c2cccnc21` it is 833 s.
With `Cn1c(=O)n(C)c2cc(N3CCCCC3)c(NC(=O)COc3ccc(Cl)cc3)cc21` the figure was 1040 s; with `Cc1ccnc(C(=O)Nc2ccc(Nc3cc(N4CCOCC4)nc(C)n3)cc2)n1`, 566 s; with `COc1ccccc1OCCCn1c(C2CCCO2)nc2ccccc21` (centres undefined), 602 s.
`Cc1ccc2c(Nc3ccc4c(c3)OCCO4)c(C(=O)N3CCOCC3)cnc2n1` came in with an RP-LC retention time of 577 s.
`O=C(c1c(F)cccc1F)N1CCc2nc(-c3ccc(Cl)cc3)ncc2C1` registered an RP-LC retention time of 1100 s.
The figure for `Cc1cc(S(=O)(=O)N2CC(c3nc(-c4ncccn4)no3)C2)c(Cl)cc1Cl` is 834 s; for `CC(C)c1ccc(S(=O)(=O)N2CCC(C(=O)NCc3csc(-c4ccccc4)n3)CC2)cc1` it is 1070 s.
The figure for `COc1ccc(OC)c(CNC(=O)CCc2c(-c3ccc(Br)cc3)nc3ccccn23)c1` is 693 s.
With `O=S(=O)(Cc1ccccc1)N1CCCCC1c1nc(-c2cccnc2)n[nH]1` (centres undefined) the figure was 701 s; with `CCc1nc2cccnc2n1C1CCN(C(=O)c2ccc(C(F)(F)F)cc2)C1` (centres undefined), 649 s; with `O=C(Cn1ncn2nc(-c3ccccc3)cc2c1=O)N1CCN(c2ccccn2)CC1`, 620 s.
`COc1ccc(OC)c(NS(=O)(=O)c2cc(-c3nc(C(C)(C)C)cs3)cs2)c1` showed an RP-LC retention time of 1250 s.
`O=C(c1ccccc1)N1CCN(C(=O)N(c2ccccc2)c2ccccc2)CC1` registered an RP-LC retention time of 808 s.
